Assay results as given in patent US11339130B1 (Blade Therapeutics, Inc., priority 2016, dated 2022).
Counter-ions that a name gives are not always drawn.

Legend:
[1] = test system: Calpain activity in SH-SY5Y cells; test: SH-SY5Y + AMC fluorescence assay (Suc-LLVY-AMC substrate); assay type: cell-based; settings: read-out: SH-SY5Y + AMC IC50
Human Calpain 9/NS1 = target: T1, Human Calpain 9/NS1 (Homo sapiens, UniProt O14815); test: Calpain inhibition continuous fluorescence (FRET) assay, Human Calpain 9/NS1; assay type: biochemical; settings: read-out: Human Calpain 9/NS1 IC50
T1 sequence (O14815 1-690): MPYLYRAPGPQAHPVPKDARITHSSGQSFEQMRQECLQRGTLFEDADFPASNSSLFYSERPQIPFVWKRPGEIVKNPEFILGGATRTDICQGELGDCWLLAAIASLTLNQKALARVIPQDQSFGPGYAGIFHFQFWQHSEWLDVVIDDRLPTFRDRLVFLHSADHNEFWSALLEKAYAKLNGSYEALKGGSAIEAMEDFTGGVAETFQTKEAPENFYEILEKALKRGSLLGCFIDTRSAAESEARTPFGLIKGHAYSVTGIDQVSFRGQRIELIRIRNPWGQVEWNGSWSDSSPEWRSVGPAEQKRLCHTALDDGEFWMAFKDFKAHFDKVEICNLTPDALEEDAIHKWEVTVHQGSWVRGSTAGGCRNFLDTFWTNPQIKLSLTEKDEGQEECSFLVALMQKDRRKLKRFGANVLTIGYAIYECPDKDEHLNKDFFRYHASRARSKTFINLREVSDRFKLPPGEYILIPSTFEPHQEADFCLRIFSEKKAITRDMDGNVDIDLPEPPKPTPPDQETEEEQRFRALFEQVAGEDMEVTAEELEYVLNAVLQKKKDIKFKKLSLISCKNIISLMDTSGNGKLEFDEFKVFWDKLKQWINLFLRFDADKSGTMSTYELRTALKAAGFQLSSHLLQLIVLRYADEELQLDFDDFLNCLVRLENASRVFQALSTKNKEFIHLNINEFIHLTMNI
T1 sequence (P04632 1-268 partner): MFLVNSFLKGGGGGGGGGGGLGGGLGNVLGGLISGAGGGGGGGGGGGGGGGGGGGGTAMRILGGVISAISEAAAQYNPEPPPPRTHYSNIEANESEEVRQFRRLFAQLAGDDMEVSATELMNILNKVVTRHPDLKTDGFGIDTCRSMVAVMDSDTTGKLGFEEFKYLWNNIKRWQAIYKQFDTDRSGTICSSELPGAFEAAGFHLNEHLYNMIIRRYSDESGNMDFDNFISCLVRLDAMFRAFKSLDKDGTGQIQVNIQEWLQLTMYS
Procedure, shortened: (§1)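 Calpain activity is measured kinetically with a quenched FRET peptide in 50 mM Tris pH 7.5, 100 mM NaCl, 1 mM DTT, with CaCl2 triggering activation. Rates over 1-5 min are plotted against log inhibitor to obtain IC50 by 4-parameter logistic fitting.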

Human Calpain 1/NS1 = target: T2, Human Calpain 1/NS1 (Homo sapiens, UniProt P07384); test: Calpain inhibition continuous fluorescence (FRET) assay, Human Calpain 1/NS1; assay type: biochemical; settings: read-out: Human Calpain 1/NS1 IC50
T2 sequence (P07384 1-714): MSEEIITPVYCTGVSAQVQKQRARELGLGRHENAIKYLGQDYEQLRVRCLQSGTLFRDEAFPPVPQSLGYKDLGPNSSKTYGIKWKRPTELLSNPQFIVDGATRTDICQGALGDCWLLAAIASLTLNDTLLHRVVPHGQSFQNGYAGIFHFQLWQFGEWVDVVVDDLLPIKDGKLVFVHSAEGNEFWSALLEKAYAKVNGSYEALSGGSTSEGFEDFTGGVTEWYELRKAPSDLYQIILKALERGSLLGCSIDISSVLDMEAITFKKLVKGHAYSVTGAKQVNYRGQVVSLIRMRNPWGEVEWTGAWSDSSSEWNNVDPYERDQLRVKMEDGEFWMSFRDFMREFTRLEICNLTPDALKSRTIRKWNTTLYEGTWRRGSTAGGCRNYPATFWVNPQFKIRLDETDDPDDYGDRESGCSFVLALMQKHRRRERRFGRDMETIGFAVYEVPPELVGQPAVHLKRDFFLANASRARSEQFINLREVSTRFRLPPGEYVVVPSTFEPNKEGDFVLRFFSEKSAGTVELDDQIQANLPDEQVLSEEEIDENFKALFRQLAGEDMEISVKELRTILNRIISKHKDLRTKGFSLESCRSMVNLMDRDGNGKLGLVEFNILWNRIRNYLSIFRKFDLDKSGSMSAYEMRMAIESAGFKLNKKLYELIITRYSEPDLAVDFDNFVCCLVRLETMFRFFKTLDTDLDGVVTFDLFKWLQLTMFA
T2 sequence (P04632 1-268 partner): T1 sequence (P04632 1-268 partner)
Procedure, shortened: as §1

[2] = test system: Calpain activity in SH-SY5Y cells (SBDP-150); test: SH-SY5Y Spectrin western blot assay (SBDP-150 breakdown product, A23187-induced); assay type: cell-based; settings: Homo sapiens; SH-SY5Y cells, A23187-induced SBDP-150, western blot; read-out: SH-SY5Y Spectrin IC50
Human Calpain 2/NS1 = target: T3, Human Calpain 2/NS1 (Homo sapiens, UniProt P17655); test: Calpain inhibition continuous fluorescence (FRET) assay, Human Calpain 2/NS1; assay type: biochemical; settings: read-out: Human Calpain 2/NS1 IC50
T3 sequence (P17655 1-700): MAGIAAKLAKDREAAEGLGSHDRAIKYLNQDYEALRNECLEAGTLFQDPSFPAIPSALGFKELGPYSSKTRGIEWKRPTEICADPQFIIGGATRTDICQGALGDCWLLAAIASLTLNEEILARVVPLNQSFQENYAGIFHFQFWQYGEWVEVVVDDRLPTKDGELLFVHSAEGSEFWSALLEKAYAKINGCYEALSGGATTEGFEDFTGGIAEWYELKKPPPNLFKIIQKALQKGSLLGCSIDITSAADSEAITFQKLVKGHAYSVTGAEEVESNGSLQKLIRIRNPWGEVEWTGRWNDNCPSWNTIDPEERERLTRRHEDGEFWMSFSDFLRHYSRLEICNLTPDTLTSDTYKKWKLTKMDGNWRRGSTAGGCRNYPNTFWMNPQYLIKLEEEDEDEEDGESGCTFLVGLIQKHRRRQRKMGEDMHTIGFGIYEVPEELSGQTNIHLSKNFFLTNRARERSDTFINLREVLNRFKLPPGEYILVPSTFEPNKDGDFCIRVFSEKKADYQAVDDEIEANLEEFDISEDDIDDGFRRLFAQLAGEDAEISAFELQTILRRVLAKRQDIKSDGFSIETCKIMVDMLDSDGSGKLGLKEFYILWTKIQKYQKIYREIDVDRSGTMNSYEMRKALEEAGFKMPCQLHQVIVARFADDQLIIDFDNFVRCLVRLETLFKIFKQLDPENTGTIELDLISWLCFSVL
T3 sequence (P04632 1-268 partner): T1 sequence (P04632 1-268 partner)
Procedure, shortened: as §1

SMILES | IC50 [1] | IC50 (Human Calpain 9/NS1) | IC50 (Human Calpain 1/NS1) | IC50 [2] | IC50 (Human Calpain 2/NS1)
Cc1cc(C(=O)N[C@@H](Cc2ccccc2)C(=O)C(N)=O)nn1-c1ccnc(Cl)n1 [Compound 435, (S)—N-(4-amino-3,4-dioxo-1-phenylbutan-2-yl)-1-(2-chloropyrimidin-4-yl)-5-methyl-1H-pyrazole-3-carboxamide] | < 10 µM | 3 to 10 µM | > 10 µM | > 25 µM | 3 to 10 µM
COc1nccc(-n2nc(C)cc2C(=O)NC(Cc2ccccc2)C(=O)C(N)=O)n1 (stereo not shown) [Compound 436, N-(4-amino-3,4-dioxo-1-phenylbutan-2-yl)-1-(2-methoxypyrimidin-4-yl)-3-methyl-1H-pyrazole-5-carboxamide] | < 10 µM | < 3 µM | < 3 µM | > 25 µM | < 3 µM
Cc1cc(C(=O)NC(Cc2ccccc2)C(=O)C(N)=O)n(-c2ccnc(C#N)n2)n1 (stereo not shown) [Compound 437, N-(4-amino-3,4-dioxo-1-phenylbutan-2-yl)-1-(2-cyanopyrimidin-4-yl)-3-methyl-1H-pyrazole-5-carboxamide] | 10 to 25 µM | < 3 µM | < 3 µM | > 25 µM | < 3 µM
Cc1cc(C(=O)NC(Cc2ccccc2)C(=O)C(N)=O)n(-c2cccc(COCc3ccccc3)c2)n1 (stereo not shown) [Compound 438, N-(4-amino-3,4-dioxo-1-phenylbutan-2-yl)-1-(3-((benzyloxy)methyl)phenyl)-3-methyl-1H-pyrazole-5-carboxamide] | 10 to 25 µM | < 3 µM | < 3 µM | 10 to 25 µM | < 3 µM
Cc1cc(C(=O)NC(Cc2ccccc2)C(=O)C(N)=O)n(-c2ccc(Oc3ccccc3)cc2)n1 (stereo not shown) [Compound 439, N-(4-Amino-3,4-dioxo-1-phenylbutan-2-yl)-3-methyl-1-(4-phenoxyphenyl)-1H-pyrazole-5-carboxamide] | > 25 µM | < 3 µM | < 3 µM | < 10 µM | < 3 µM
Cc1cc(C(=O)NC(Cc2ccccc2)C(=O)C(N)=O)n(-c2ccc(OC3CCOCC3)cc2)n1 (stereo not shown) [Compound 440, N-(4-amino-3,4-dioxo-1-phenylbutan-2-yl)-3-methyl-1-(4-((tetrahydro-2H-pyran-4-yl)oxy)phenyl)-1H-pyrazole-5-carboxamide] | > 25 µM | < 3 µM | < 3 µM | < 10 µM | < 3 µM
CCN(CC)Cc1ccc(Oc2ccc(-n3nc(C)cc3C(=O)NC(Cc3ccccc3)C(=O)C(N)=O)cc2)cc1 (stereo not shown) [Compound 441, N-(4-amino-3,4-dioxo-1-phenylbutan-2-yl)-1-(4-(4-((diethylamino)methyl)phenoxy)phenyl)-3-methyl-1H-pyrazole-5-carboxamide hydrochloride] | > 25 µM | > 10 µM | > 10 µM | > 25 µM | > 10 µM

The remaining lines, values ahead:

IC50 [1] | IC50 (Human Calpain 9/NS1) | IC50 (Human Calpain 1/NS1) | IC50 [2] | IC50 (Human Calpain 2/NS1) | SMILES
> 25 µM | < 3 µM | < 3 µM | 10 to 25 µM | < 3 µM | Cc1cc(C(=O)NC(Cc2ccccc2)C(=O)C(N)=O)n(-c2ccc(CN3CCOCC3)cc2)n1 (stereo not shown) [Compound 442, N-(4-amino-3,4-dioxo-1-phenylbutan-2-yl)-3-methyl-1-(4-(morpholinomethyl)phenyl)-1H-pyrazole-5-carboxamide]
10 to 25 µM | < 3 µM | < 3 µM | < 10 µM | < 3 µM | COCCOCCOc1ccc(-n2nc(C)cc2C(=O)NC(Cc2ccccc2)C(=O)C(N)=O)cc1 (stereo not shown) [Compound 443, N-(4-amino-3,4-dioxo-1-phenylbutan-2-yl)-1-(4-(2-(2-methoxyethoxy)ethoxy)phenyl)-3-methyl-1H-pyrazole-5-carboxamide]
< 10 µM | < 3 µM | < 3 µM | 10 to 25 µM | < 3 µM | COCCOCCOc1cccc(-n2nc(C)cc2C(=O)NC(Cc2ccccc2)C(=O)C(N)=O)c1 (stereo not shown) [Compound 444, N-(4-amino-3,4-dioxo-1-phenylbutan-2-yl)-1-(3-(2-(2-methoxyethoxy)ethoxy)phenyl)-3-methyl-1H-pyrazole-5-carboxamide]
> 25 µM | < 3 µM | < 3 µM | < 10 µM | < 3 µM | Cc1cc(C(=O)NC(Cc2ccccc2)C(=O)C(N)=O)n(-c2ccc(C(F)(F)F)cn2)n1 (stereo not shown) [Compound 445, N-(4-amino-3,4-dioxo-1-phenylbutan-2-yl)-3-methyl-1-(5-(trifluoromethyl)pyridin-2-yl)-1H-pyrazole-5-carboxamide]
10 to 25 µM | < 3 µM | < 3 µM | 10 to 25 µM | < 3 µM | Cn1cc(C(=O)NC(Cc2ccccc2)C(=O)C(N)=O)c(-c2ccc(F)cc2)n1 (stereo not shown) [Compound 447, N-(4-amino-3,4-dioxo-1-phenylbutan-2-yl)-3-(4-fluorophenyl)-1-methyl-1H-pyrazole-4-carboxamide]
< 10 µM | 3 to 10 µM | < 3 µM | 10 to 25 µM | < 3 µM | Cc1cc(C(=O)NC(Cc2ccccc2)C(=O)C(=O)NC2CC2)n(-c2cnccn2)n1 (stereo not shown) [Compound 454, N-(4-(cyclopropylamino)-3,4-dioxo-1-phenylbutan-2-yl)-3-methyl-1-(pyrazin-2-yl)-1H-pyrazole-5-carboxamide]
< 10 µM | > 10 µM | 3 to 10 µM | > 25 µM | < 3 µM | Cc1cc(C(=O)NC(Cc2ccccc2)C(=O)C(=O)NC2CC2)n(-c2ncccn2)n1 (stereo not shown) [Compound 455, N-(4-(cyclopropylamino)-3,4-dioxo-1-phenylbutan-2-yl)-3-methyl-1-(pyrimidin-2-yl)-1H-pyrazole-5-carboxamide]
